The target in assay [1] is T1, recombinant guanylate cyclase reporter cell line (Rattus norvegicus, UniProt P19686+P20595).
T1 construct: expressed in transfected cells
T1 sequence (P19686 1-690): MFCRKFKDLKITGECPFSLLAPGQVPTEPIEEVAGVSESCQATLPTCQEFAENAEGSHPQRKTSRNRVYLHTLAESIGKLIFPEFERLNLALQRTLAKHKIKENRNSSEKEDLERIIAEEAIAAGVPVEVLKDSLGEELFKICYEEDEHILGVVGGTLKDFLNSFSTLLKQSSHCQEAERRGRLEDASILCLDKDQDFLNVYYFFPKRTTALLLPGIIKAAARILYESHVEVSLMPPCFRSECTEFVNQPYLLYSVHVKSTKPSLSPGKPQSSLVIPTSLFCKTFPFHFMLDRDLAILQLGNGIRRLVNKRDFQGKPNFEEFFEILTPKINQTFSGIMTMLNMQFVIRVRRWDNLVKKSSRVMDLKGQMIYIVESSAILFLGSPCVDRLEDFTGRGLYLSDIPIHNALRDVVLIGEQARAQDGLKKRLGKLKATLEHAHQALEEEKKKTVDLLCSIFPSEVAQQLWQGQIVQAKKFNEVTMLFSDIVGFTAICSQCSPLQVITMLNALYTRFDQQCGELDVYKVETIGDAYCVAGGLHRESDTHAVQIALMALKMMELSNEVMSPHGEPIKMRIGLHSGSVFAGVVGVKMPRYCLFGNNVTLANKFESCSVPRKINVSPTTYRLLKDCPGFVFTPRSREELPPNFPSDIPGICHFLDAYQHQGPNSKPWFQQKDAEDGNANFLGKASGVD
T1 sequence (P20595 1-619): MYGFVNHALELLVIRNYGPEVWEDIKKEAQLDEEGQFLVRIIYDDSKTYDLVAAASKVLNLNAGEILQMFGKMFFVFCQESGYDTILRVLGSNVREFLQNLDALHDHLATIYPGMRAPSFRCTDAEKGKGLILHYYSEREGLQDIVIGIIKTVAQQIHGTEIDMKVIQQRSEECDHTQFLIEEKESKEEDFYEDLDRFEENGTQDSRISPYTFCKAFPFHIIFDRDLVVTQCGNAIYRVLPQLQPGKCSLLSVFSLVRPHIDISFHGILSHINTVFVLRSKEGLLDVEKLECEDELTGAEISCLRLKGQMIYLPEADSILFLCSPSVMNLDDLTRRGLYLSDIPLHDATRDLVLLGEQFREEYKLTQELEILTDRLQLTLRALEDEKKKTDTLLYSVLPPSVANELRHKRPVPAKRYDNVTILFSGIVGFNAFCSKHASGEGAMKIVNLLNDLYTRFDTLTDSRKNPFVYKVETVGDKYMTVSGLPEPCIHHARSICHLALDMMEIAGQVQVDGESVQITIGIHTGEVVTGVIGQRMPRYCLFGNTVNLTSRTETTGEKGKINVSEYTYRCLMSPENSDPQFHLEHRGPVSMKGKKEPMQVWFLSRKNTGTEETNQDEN
Kind of assay: Effect on a recombinant guanylate cyclase reporter cell line. The class given is cell-based. Particulars: MEC = minimum effective concentration; in some cases means of individual determinations. Here is the method: B-2. Effect on a Recombinant Guanylate Cyclase Reporter Cell Line
The cellular activity of the compounds of the invention is determined using a recombinant guanylate cyclase reporter cell line, as described in F. Wunder et al., Anal. Biochem. 2005, 339, 104-112. Representative values (MEC=minimum effective concentration) for the compounds of the invention are shown in the table below (Table 1B; in some cases as means of individual determinations): […]

Assay [2] concerns the target T2, human phosphodiesterase 5 (PDE 5) (Homo sapiens, UniProt O76074).
T2 construct: PDE 5 preparations are obtained from human platelets by disruption; from tissue; host or cells: human platelets
In words: Inhibition of human phosphodiesterase 5 (PDE 5). To be noted: PDE 5 preparation from human platelets; in some cases means of individual determinations. The assay is classed as biochemical. The protocol:
B-3. Inhibition of Human Phosphodiesterase 5 (PDE 5)
PDE 5 preparations are obtained from human platelets by disruption (Microfluidizer®, 800 bar, 3 passes), followed by centrifugation (75 000 g, 60 min, 4° C.) and ion exchange chromatography of the supernatant on a Mono Q 10/10 column (linear sodium chloride gradient, elution with a 0.2-0.3M solution of sodium chloride in buffer (20 mM Hepes pH 7.2, 2 mM magnesium chloride). Fractions having PDE 5 activity are combined (PDE 5 preparation) and stored at −80° C.
To determine their in vitro action on human PDE 5, the test substances are dissolved in 100% DMSO and serially diluted. Typically, dilution series (1:3) from 200 μM to 0.091 μM are prepared (resulting final concentrations in the test: 4 μM to 0.0018 μM). In each case 2 μl of the diluted substance solutions are placed into the wells of microtitre plates (Isoplate-96/200W; Perkin Elmer). Subsequently, 50 μl of a dilution of the above-described PDE 5 preparation are added. The dilution of the PDE 5 preparation is chosen such that during the later incubation less than 70% of the substrate are converted (typical dilution: 1:100; dilution buffer: 50 mM tris/hydrochloric acid pH 7.5, 8.3 mM magnesium chloride, 1.7 mM EDTA, 0.2% BSA). The substrate, [8-^3H] cyclic guanosine-3′,5′-monophosphate (1 μCi/μl; Perkin Elmer), is diluted 1:2000 with assay buffer (50 mM tris/hydrochloric acid pH 7.5, 8.3 mM magnesium chloride, 1.7 mM EDTA) to a concentration of 0.0005 μCi/μl. By addition of 50 μl (0.025 μCi) of the diluted substrate, the enzyme reaction is finally started. The test mixtures are incubated at room temperature for 60 min and the reaction is stopped by adding 25 μl of a suspension of 18 mg/ml yttrium scintillation proximity beads in water (phosphodiesterase beads for SPA assays, RPNQ 0150, Perkin Elmer). The microtitre plates are sealed with a film and left to stand at room temperature for 60 min. Subsequently, the plates are analysed for 30 s per well in a Microbeta scintillation counter (Perkin Elmer). IC50 values are determined using the graphic plot of the substance concentration against percentage PDE 5 inhibition.

pIC50: −log10 of the molar value.

This is an account of results in US20170233413A1, “SUBSTITUTED ANNULATED PYRIMIDINES AND USE THEREOF” (Bayer Pharma Aktiengesellschaft, priority 2014, published 2017).

`CC1(C)C(=O)Nc2nc(-c3nn(Cc4ccccc4F)c4ncccc34)nc(C(=O)NCc3ccncc3)c21` [Example 118, 2-[1-(2-fluorobenzyl)-1H-pyrazolo[3,4-b]pyridin-3-yl]-5,5-dimethyl-6-oxo-N-(pyridin-4-ylmethyl)-6,7-dihydro-5H-pyrrolo[2,3-d]pyrimidine-4-carboxamide]: the MEC in assay [1] was 0.1 µM. For the same compound, the pIC50 in assay [2] is 7.68. In the case of `CC(C)CNC(=O)c1nc(-c2nn(Cc3ccccc3F)c3ncccc23)nc2c1C(C)(C)C(=O)N2` [Example 122, 2-[1-(2-fluorobenzyl)-1H-pyrazolo[3,4-b]pyridin-3-yl]-5,5-dimethyl-N-(2-methylpropyl)-6-oxo-6,7-dihydro-5H-pyrrolo[2,3-d]pyrimidine-4-carboxamide], the MEC in assay [1] turned out to be 0.1 µM. This compound also gave a pIC50 in assay [2] of 7.70. For `CC1(C)C(=O)Nc2nc(-c3nn(Cc4ccccc4F)c4ncccc34)nc(C(=O)NCc3ccccn3)c21` [Example 117, 2-[1-(2-fluorobenzyl)-1H-pyrazolo[3,4-b]pyridin-3-yl]-5,5-dimethyl-6-oxo-N-(pyridin-2-ylmethyl)-6,7-dihydro-5H-pyrrolo[2,3-d]pyrimidine-4-carboxamide], the MEC in assay [1] is 0.1 µM. Besides, the pIC50 in assay [2] is 7.60. In the same order, the values of `CC1(C(F)(F)F)C(=O)Nc2nc(-c3nn(Cc4ncccc4F)c4ncc(F)cc34)nc(C(N)=O)c21` (racemic) [Example 21, rac-2-{5-Fluoro-1-[(3-fluoropyridin-2-yl)methyl]-1H-pyrazolo[3,4-b]pyridin-3-yl}-5-methyl-6-oxo-5-(trifluoromethyl)-6,7-dihydro-5H-pyrrolo[2,3-d]pyrimidine-4-carboxamide] are 3 µM and 6.64. With `Cc1nc2c(cc1F)c(-c1nc3c(c(C(N)=O)n1)C(C)(C)C(=O)N3)nn2Cc1ccccc1F` [Example 5, 2-[5-Fluoro-1-(2-fluorobenzyl)-6-methyl-1H-pyrazolo[3,4-b]pyridin-3-yl]-5,5-dimethyl-6-oxo-6,7-dihydro-5H-pyrrolo[2,3-d]pyrimidine-4-carboxamide], the MEC in assay [1] worked out at 0.3 µM. Also, the pIC50 in assay [2] is 7.07.

Take `CCCCCCNC(=O)c1nc(-c2nn(Cc3ccccc3F)c3ncccc23)nc2c1C(C)(C)C(=O)N2` [Example 124, 2-[1-(2-fluorobenzyl)-1H-pyrazolo[3,4-b]pyridin-3-yl]-N-hexyl-5,5-dimethyl-6-oxo-6,7-dihydro-5H-pyrrolo[2,3-d]pyrimidine-4-carboxamide]: the MEC in assay [1] worked out at 1 µM. As to `CC1(C)C(=O)Nc2nc(-c3nn(Cc4ccccc4F)c4ncc(F)cc34)nc(C(=O)NCC3(O)CC3)c21` [Example 27, 2-[5-Fluoro-1-(2-fluorobenzyl)-1H-pyrazolo[3,4-b]pyridin-3-yl]-N-[(1-hydroxycyclopropyl)methyl]-5,5-dimethyl-6-oxo-6,7-dihydro-5H-pyrrolo[2,3-d]pyrimidine-4-carboxamide], the MEC in assay [1] amounted to 0.1 µM. Moreover, the pIC50 in assay [2] was 7.29. In the same order, the values of `Cc1nc2c(cc1F)c(-c1nc3c(c(C(N)=O)n1)C(C)(C(F)(F)F)C(=O)N3)nn2Cc1cccc(F)c1F` (single isomer, unassigned; ent-2) [Example 10, ent-2-[1-(2,3-Difluorobenzyl)-5-fluoro-6-methyl-1H-pyrazolo[3,4-b]pyridin-3-yl]-5-methyl-6-oxo-5-(trifluoromethyl)-6,7-dihydro-5H-pyrrolo[2,3-d]pyrimidine-4-carboxamide (enantiomer A)] are 0.3 µM and 6.96. Consider `CC1(C)C(=O)Nc2nc(-c3nn(Cc4ccccc4F)c4ncccc34)nc(C(=O)Nc3ccncc3)c21` [Example 116, 2-[1-(2-fluorobenzyl)-1H-pyrazolo[3,4-b]pyridin-3-yl]-5,5-dimethyl-6-oxo-N-(pyridin-4-yl)-6,7-dihydro-5H-pyrrolo[2,3-d]pyrimidine-4-carboxamide], for which, in assay [1], the MEC came to 1 µM.

In the case of `CC(C)(C)CNC(=O)c1nc(-c2nn(Cc3ccccc3F)c3ncccc23)nc2c1C(C)(C)C(=O)N2` [Example 102, N-(2,2-dimethylpropyl)-2-[1-(2-fluorobenzyl)-1H-pyrazolo[3,4-b]pyridin-3-yl]-5,5-dimethyl-6-oxo-6,7-dihydro-5H-pyrrolo[2,3-d]pyrimidine-4-carboxamide], in assay [1], the MEC was 0.3 µM. As to `CC(C)(C)CCNC(=O)c1nc(-c2nn(Cc3ccccc3F)c3ncccc23)nc2c1C(C)(C)C(=O)N2` [Example 135, N-(3,3-dimethylbutyl)-2-[1-(2-fluorobenzyl)-1H-pyrazolo[3,4-b]pyridin-3-yl]-5,5-dimethyl-6-oxo-6,7-dihydro-5H-pyrrolo[2,3-d]pyrimidine-4-carboxamide], the MEC in assay [1] amounted to 1 µM.

`Cc1cnccc1NC(=O)c1nc(-c2nn(Cc3ccccc3F)c3ncccc23)nc2c1C(C)(C)C(=O)N2` [Example 101, 2-[1-(2-fluorobenzyl)-1H-pyrazolo[3,4-b]pyridin-3-yl]-5,5-dimethyl-N-(3-methylpyridin-4-yl)-6-oxo-6,7-dihydro-5H-pyrrolo[2,3-d]pyrimidine-4-carboxamide]: in assay [1], the MEC amounted to 0.3 µM. The same measure, in the same setting: the same measure for `CC1(C)C(=O)Nc2nc(-c3nn(Cc4ccccc4F)c4ncccc34)nc(C(=O)NCC(N)=O)c21` [Example 75, N-(2-amino-2-oxoethyl)-2-[1-(2-fluorobenzyl)-1H-pyrazolo[3,4-b]pyridin-3-yl]-5,5-dimethyl-6-oxo-6,7-dihydro-5H-pyrrolo[2,3-d]pyrimidine-4-carboxamide]: 0.3 µM. For the compound `CN(CCC(N)=O)C(=O)c1nc(-c2nn(Cc3ccccc3F)c3ncccc23)nc2c1C(C)(C)C(=O)N2` [Example 110, N-(3-amino-3-oxopropyl)-2-[1-(2-fluorobenzyl)-1H-pyrazolo[3,4-b]pyridin-3-yl]-N,5,5-trimethyl-6-oxo-6,7-dihydro-5H-pyrrolo[2,3-d]pyrimidine-4-carboxamide], the MEC in assay [1] amounted to 1 µM. Still for that read-out and setting: the same measure for `Cc1cc(NC(=O)c2nc(-c3nn(Cc4ccccc4F)c4ncccc34)nc3c2C(C)(C)C(=O)N3)ccn1` [Example 106, 2-[1-(2-fluorobenzyl)-1H-pyrazolo[3,4-b]pyridin-3-yl]-5,5-dimethyl-N-(2-methylpyridin-4-yl)-6-oxo-6,7-dihydro-5H-pyrrolo[2,3-d]pyrimidine-4-carboxamide]: 0.3 µM.
